Holding throughout (type): cell-based
In assay [1] the test system is human colon carcinoma cell line HCT116. Briefly: Inhibition of cell proliferation (GI50), HCT116. Conditions: Homo sapiens; HCT 116 cells, 48 h, CellTiter-Glo. The gist of the method:
(§1)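 Proliferation was measured by luminescent ATP assay after cells were incubated with compound for 48 h at 37 °C. GI50 was derived as the concentration giving half the growth seen in drug-free wells, after subtracting the signal recorded 0.5 h post-seeding.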

The test system of assay [2] is human breast cancer cell line T-47D. Briefly: Inhibition of cell proliferation (GI50), T47D. Conditions: Homo sapiens; T47D cells, 48 h, CellTiter-Glo. Here is the method:
(§2) Human breast cancer cell lines T-47D, human hepatocellular carcinoma cell line SNU398, human colon carcinoma cell line HCT116, human lung cancer cell line H1299, human leukemia cell line K562, human lymphoma cell line Raji, human B cell lymphoblastoid cell line Ramos, and human Burkitt's lymphoma cell line Namalwa were grown and harvested as in Example 100. An aliquot of […] of cells (4.4×10^4 cells/mL) was added to a well of a 96-well microtiter plate containing 5 μL of a 10% DMSO in RPMI-1640 media solution containing 10 nM to 100 μM of 3-(2-chlorophenyl)-6-(3,4-methylenedioxyphenyl)-7H-[1,2,4]triazolo[3,4-b][1,3,4]thiadiazine (1 nM to 10 μM final). An aliquot of 45 μL of cells was added to a well of a 96-well microtiter plate containing 5 μL of a 10% DMSO in RPMI-1640 media solution without compound as the control sample for maximal cell proliferation (LMax). The samples were mixed by agitation and then incubated at 37° C. for 48 h in a 5% CO2-95% humidity incubator. After incubation, the samples were removed from the incubator and 25 μL of CellTiter-Glo™ reagent (Promega) was added. The samples were mixed by agitation and incubated at room temperature for 10-15 min. Plates were then read using a luminescent plate reader (Model SPECTRAfluor Plus, Tecan) to give Ltest values.
(§3) The samples were mixed by agitation and then incubated at 37° C. for 0.5 h in a 5% CO2-95% humidity incubator. After incubation, the samples were removed from the incubator and 25 μL of CellTiter-Glo™ reagent (Promega) was added. The samples were mixed by agitation and incubated at […] 10-15 min at room temperature in a 5% CO2-95% humidity incubator. Fluorescence was read as above, (LStart) defining luminescence for initial cell number used as baseline in GI50 determinations.
(§4) Calculation: GI50 (dose for 50% inhibition of cell proliferation) is the concentration where [(Ltest−LStart)/(LMax−LStart)]=0.5.

Assay [3] concerns human Burkitt's lymphoma cell line Namalwa. As to the kind of experiment: Caspase cascade activation (EC50), Namalwa. The note with it: Homo sapiens, Burkitts lymphoma cell; Namalwa cells; caspase cascade activation; read-out: caspase potency (EC50) Namalwa. The gist of the method:
(§5)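 EC50 values derive from a sigmoidal fit of net fluorescence (3 h reading minus control T=0 background) relative to untreated control. The 3 h room-temperature read used 14 μM DEVD-R110 substrate with lysolecithin, DTT and pH 7.2 PIPES buffer at 485/530 nm. Beforehand, cells were treated 48 h at 37° C with 0.016-10 μM final compound.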

In assay [4] the test system is human colon carcinoma cell line HCT116. As to the kind of experiment: Caspase cascade activation (EC50), HCT116. Conditions: Homo sapiens, HCT-116; HCT116 cells; caspase cascade activation; read-out: caspase potency (EC50) HCT116. The gist of the method:
as §5

In assay [5] the test system is human Burkitt's lymphoma cell line Namalwa. As to the kind of experiment: Inhibition of cell proliferation (GI50), Namalwa. The note with it: Homo sapiens, Burkitts lymphoma cell; Namalwa cells, 48 h, CellTiter-Glo. Summed up: as §1
Assay [6] relates to human hepatocellular carcinoma cell line SNU398. Briefly: Inhibition of cell proliferation (GI50), SNU398. The note with it: Homo sapiens; SNU 398 cells, 48 h, CellTiter-Glo. The protocol:
as §2, §3, §4

Assay [7] has the same test system. Briefly: Caspase cascade activation (EC50), SNU398. Conditions: Homo sapiens, SNU-398; SNU398 cells; caspase cascade activation; read-out: caspase potency (EC50) SNU398. Summed up:
as §5

In assay [8] the test system is human breast cancer cell line T-47D. Briefly: Caspase cascade activation (EC50), T-47D. The note with it: Homo sapiens; T47D cells; caspase cascade activation; read-out: caspase potency (EC50) T47D. The gist of the method:
as §5

pEC50: −log10 of the molar value.

`COc1ccc(C2=Nn3c(nnc3-c3ccccc3OC)SC2)cc1` [Example 46, 3-(2-Methoxyphenyl)-6-(4-methoxyphenyl)-7H-[1,2,4]triazolo[3,4-b][1,3,4]thiadiazine]: the concentration for 50% growth inhibition (GI50) is 8 nM in assay [1], 12 nM in assay [2], 13 nM in assay [5] and 10 nM in assay [6]. The negative logarithm of the EC50 (pEC50) in assay [3] is 7.96; in assay [4], 7.72; in assay [7], 7.77; in assay [8] it was 7.37.

On to `COc1cc(C)ccc1C1=Nn2c(nnc2-c2ccccc2OC)SC1` [Example 41, 6-(2-Methoxy-4-methylphenyl)-3-(2-methoxyphenyl)-7H-[1,2,4]triazolo[3,4-b][1,3,4]thiadiazine], for which the GI50 in assay [1] came to 1270 nM; in assay [2] it was 261 nM; in assay [5], 208 nM; in assay [6], 117 nM. The negative-log EC50 (pEC50) is 6.74 in assay [3], 6.54 in assay [4], 6.74 in assay [7] and 6.37 in assay [8].

As to `CNc1ccccc1-c1nnc2n1N=C(c1ccc(C)cc1)CS2` [Example 84, 3-(2-Methylaminophenyl)-6-(4-methylphenyl)-7H-[1,2,4]triazolo[3,4-b][1,3,4]thiadiazine], the 50% growth inhibitory concentration (GI50) is 911 nM in assay [1], 498 nM in assay [2], 150 nM in assay [5] and 154 nM in assay [6]. Further, the negative logarithm of the EC50 (pEC50) in assay [3] is 6.90; in assay [4], 6.89; in assay [7] it was 6.83; in assay [8] it was 6.28.

In the case of `COc1ccccc1-c1nnc2n1N=C(c1ccc3c(c1)OCCO3)CS2` [Example 43, 6-(2,3-Dihydrobenzo[b][1,4]dioxin-6-yl)-3-(2-methoxyphenyl)-7H-[1,2,4]triazolo[3,4-b][1,3,4]thiadiazine], the 50% growth inhibitory concentration (GI50) in assay [1] turned out to be 40 nM; in assay [2], 34 nM; in assay [5], 64 nM; in assay [6] it was 13 nM. Further, the pEC50 in assay [3] was 7.82; in assay [4], 7.60; in assay [7], 7.77; in assay [8], 7.46.

Regarding `COc1cccc(-c2nnc3n2N=C(c2ccc(C)cc2)CS3)c1OC` [Example 65, 3-(2,3-Dimethoxyphenyl)-6-(4-methylphenyl)-7H-[1,2,4]triazolo[3,4-b][1,3,4]thiadiazine], the GI50 in assay [1] was 4680 nM; in assay [2], 1510 nM; in assay [5], 1230 nM; in assay [6], 204 nM. Moreover, the negative logarithm of the EC50 (pEC50) in assay [3] was 6.25; in assay [4], 6.20; in assay [7], 6.28; in assay [8], 6.21.

In the case of `COc1ccccc1-c1nnc2n1N=C(c1ccc(N=[N+]=[N-])cc1)CS2` [Example 76, 6-(4-Azidophenyl)-3-(2-methoxyphenyl)-7H-[1,2,4]triazolo[3,4-b][1,3,4]thiadiazine], the concentration for 50% growth inhibition (GI50) in assay [1] was found to be 109 nM; in assay [2], 34 nM; in assay [5] it was 55 nM; in assay [6], 23 nM. Also, the pEC50 is 7.21 in assay [3], 7.14 in assay [4], 7.27 in assay [7] and 7.03 in assay [8].

In the case of `Cc1ccc(C2=Nn3c(nnc3-c3ccccc3F)SC2)cc1` [Example 68, 3-(2-Fluorophenyl)-6-(4-methylphenyl)-7H-[1,2,4]triazolo[3,4-b][1,3,4]thiadiazine], the 50% growth inhibitory concentration (GI50) in assay [1] is 947 nM; in assay [2], 2760 nM; in assay [5], 269 nM; in assay [6] it was 144 nM. Moreover, the pEC50 in assay [3] is 6.32; in assay [4] it was 5.90; in assay [7] it was 6.20; in assay [8], 5.28.

Turning to `COc1ccccc1-c1nnc2n1N=C(c1ccc(C)c(N)c1)CS2` [Example 58, 6-(3-Amino-4-methylphenyl)-3-(2-methoxyphenyl)-7H-[1,2,4]triazolo[3,4-b][1,3,4]thiadiazine], the 50% growth inhibitory concentration (GI50) stood at 52 nM in assay [1], 26 nM in assay [2], 25 nM in assay [5] and 24 nM in assay [6]. Also, the pEC50 in assay [3] was 7.52; in assay [4], 7.27; in assay [7], 7.49; in assay [8], 7.12.

With `COc1ccccc1-c1nnc2n1N=C(c1ccc(N)cc1)CS2` [Example 75, 6-(4-Aminophenyl)-3-(2-methoxyphenyl)-7H-[1,2,4]triazolo[3,4-b][1,3,4]thiadiazine], the GI50 was found to be 867 nM in assay [1], 345 nM in assay [2], 179 nM in assay [5] and 180 nM in assay [6]. For the same compound, the negative logarithm of the EC50 (pEC50) in assay [3] was 6.87; in assay [4], 6.58; in assay [7] it was 6.69; in assay [8], 6.62.

Consider `Cc1ccc(C2=Nn3c(nnc3-c3ccc(Cl)cc3C)SC2)cc1` [Example 81, 3-(4-Chloro-2-methylphenyl)-6-(4-methylphenyl)-7H-[1,2,4]triazolo[3,4-b][1,3,4]thiadiazine], for which the GI50 in assay [1] came out at 79 nM; in assay [2] it was 255 nM; in assay [5], 18 nM; in assay [6], 21 nM. Also, the negative-log EC50 (pEC50) is 7.26 in assay [3], 7.17 in assay [4], 7.41 in assay [7] and 6.57 in assay [8].

Turning to `CSc1ccccc1-c1nnc2n1N=C(c1ccc(C)cc1)CS2` [Example 71, 3-(2-Methylthiophenyl)-6-(4-methylphenyl)-7H-[1,2,4]triazolo[3,4-b][1,3,4]thiadiazine], the GI50 in assay [1] amounted to 169 nM; in assay [2], 276 nM; in assay [5] it was 77 nM; in assay [6], 91 nM. Besides, the negative logarithm of the EC50 (pEC50) in assay [3] was 7.19; in assay [4] it was 7.12; in assay [7] it was 7.15; in assay [8], 6.34.

As to `COc1ccccc1-c1nnc2n1N=C(c1ccc(Cl)c(N)c1)CS2` [Example 59, 6-(3-Amino-4-chlorophenyl)-3-(2-methoxyphenyl)-7H-[1,2,4]triazolo[3,4-b][1,3,4]thiadiazine], the GI50 amounted to 149 nM in assay [1], 103 nM in assay [2], 84 nM in assay [5] and 98 nM in assay [6]. For the same compound, the negative logarithm of the EC50 (pEC50) in assay [3] was 7.47; in assay [4], 7.23; in assay [7] it was 7.37; in assay [8], 6.99.

On to `Cc1ccc(C2=Nn3c(nnc3-c3ccccc3C)SC2)cc1` [Example 70, 3-(2-Methylphenyl)-6-(4-methylphenyl)-7H-[1,2,4]triazolo[3,4-b][1,3,4]thiadiazine], for which the GI50 in assay [1] was determined as 1010 nM; in assay [2] it was 500 nM; in assay [5] it was 158 nM; in assay [6], 144 nM. For the same compound, the pEC50 in assay [3] was 6.80; in assay [4], 6.69; in assay [7], 6.78; in assay [8], 6.26.

With `COc1ccccc1-c1nnc2n1N=C(c1ccc3[nH]c(=O)oc3c1)CS2` [Example 47, 6-(2,3-Dihydro-2-oxobenzo[d]oxazol-6-yl)-3-(2-methoxyphenyl)-7H-[1,2,4]triazolo[3,4-b][1,3,4]thiadiazine], the GI50 in assay [1] amounted to 3000 nM; in assay [2], 3020 nM; in assay [5] it was 1480 nM; in assay [6], 1220 nM. For the same compound, the negative-log EC50 (pEC50) is 5.32 in assay [3], 5.26 in assay [4], 5.56 in assay [7] and 5.63 in assay [8].
